In patent US20230399608A1, “PROCESS FOR ESTABLISHING A HUMAN TESTICULAR TISSUE CULTURE SYSTEM” (PATERNA BIOSCIENCES INC., priority 2021, published 2023):

B1: GDNF: recombinant human glial cell line-derived neurotrophic factor (protein, UniProt P39905 78-211, looked up)
Glial cell line-derived …: SPDKQMAVLPRRERNRQAAAANPENSRGKGRRGQRGKNRGCVLTAIHLNVTDLGLGYETKEELIFRYCSGSCDAAETTYDKILKNLSRNRRLVSDKVGQACCRPIAFDDDLSFLDDNLVYHILRKHSAKRCGCI
B2: rh ADAM10: ligand of CADM1/TSPAN14/TSPAN15/TSPAN12 (protein, UniProt O14672 214-748, looked up)
Disintegrin and …: TTSAEKNTCQLYIQTDHLFFKYYGTREAVIAQISSHVKAIDTIYQTTDFSGIRNISFMVKRIRINTTADEKDPTNPFRFPNIGVEKFLELNSEQNHDDYCLAYVFTDRDFDDGVLGLAWVGAPSGSSGGICEKSKLYSDGKKKSLNTGIITVQNYGSHVPPKVSHITFAHEVGHNFGSPHDSGTECTPGESKNLGQKENGNYIMYARATSGDKLNNNKFSLCSIRNISQVLEKKRNNCFVESGQPICGNGMVEQGEECDCGYSDQCKDECCFDANQPEGRKCKLKPGKQCSPSQGPCCTAQCAFKSKSEKCRDDSDCAREGICNGFTALCPASDPKPNFTDCNRHTQVCINGQCAGSICEKYGLEECTCASSDGKDDKELCHVCCMKKMDPSTCASTGSVQWSRHFSGRTITLQPGSPCNDFRGYCDVFMRCRLVDADGPLARLKKAIFSPELYENIAEWIVAHWWAVLLMGIALIMLMAGFIKICSVHTPSSNPKLPPPKPLPGTLKRRRPPQPIQQPQRQRPRESYQMGHMRR
B3: rh MIF: ligand of CXCR4/CD74 (protein, UniProt P14174 2-115, looked up)
Macrophage migration …: PMFIVNTNVPRASVPDGFLSELTQQLAQATGKPPQYIAVHVVPDQLMAFGGSSEPCALCSLHSIGKIGGAQNRSYSKLLCGLLAERLRISPDRVYINYYDMNAANVGWNNSTFA

What was measured:
[1] = tested on: testicular tissue comprising tubules and germ cells; assay: Human testicular tissue culture: morphology and germ cell proliferation (EdU/DDX4); type: cell-based
From the text: Tissue preparation: Whole testes are removed from cadaveric organ donors by DonorConnect staff, which are picked up by Utah team and transported to research lab on ice. Testicular tissues are cut by 3-5 mm by dimeter in size using surgical scissors and tweezers.
Culture media preparation: the base media is αMEM+10% KSR. We first tested various small molecular inhibitors/ligands with different concentrations in the base media to culture testicular tissues.
Tissue culture: Place three pieces of testicular tissue into one well of a 6-well plate with 2 ml of media in each well. The tissue should be fully immersed in media. Place the plate at 34° C. in 5% CO2 in an incubator with culture media changed every other day.
Morphology examination: Measure the sizes of the cultured testicular tissues at different time points, including Day 1, Day 7, Day 14, and Day 21. And then fix the sample for H&E staining.
Germ cell proliferation examination: Add Edu (2 ul into each well) at different time points at Day 0, Day 6, Day 13, Day 20. Harvest the tissue 24 hours later for the germ cell proliferation test. Samples are washed three times by PBS and digested to isolated tubules by collagenase type IV at 37° C. Then wash 3 times by PBS to terminate the digestion and perform whole-mount staining of the tubules with Edu and DDX4/UTF1/SYCP3.

[2] = tested on: proliferating germ cells in cultured testicular tissue; assay: Inhibitor screen in cultured testicular tissue: EdU+ cells per unit area relative to best prior condition; type: cell-based, human; conditions: for EdU+/area (um2) to condition 2: ratio of EdU+ cells per unit area in test condition to condition 2, inhibitor at concentration listed in Table 12
From the text: In this study, the HIF-1a, apoptosis, inflammation, ROS, and angiogenesis pathways were primarily targeted to help maintain testicular somatic cell function and promote germ cell proliferation. The level of proliferation was quantified by calculating the number of Edu+ cells (EdU stains the cells that are in the process of replication) per unit area (in μm^2) in each condition and using the ratio of this parameter in the test condition to a previously identified best condition to quantify the effect of the tested condition.

[3] = tested on: testicular germ cell proliferation; assay: Screen of SSC / differentiating spermatogonia receptor ligands in the iterative culture process; type: cell-based, human; conditions: ligand at the concentration listed in Table 5; effective to date at improving germ cell proliferation
From the text: A process for identification and selection of receptor ligands capable of improving testicular germ cell proliferation was developed. The process uses expression data obtained by mining scRNA-seq data obtained from testicular tissue (FIG. 27). The process systematically prioritizes candidates for spermatogonia ligands through a series of bioinformatics analyses and filtering. The process comprises identifying and selecting potential ligands based on their receptor expression in State 1 SSCs (active stem cells) and State 2/3 differentiating spermatogonia (differentiated germ cells with strong proliferation ability), or any combination thereof.
More specifically, the approach was based on the single-cell RNA sequencing transcriptome profile of the adult human testis atlas (Guo, J., Grow, E. J., Mlcochova, H., Maher, G. J., Lindskog, C., Nie, X., Guo, Y., Takei, Y., Yun, J., Cai, L., et al. (2018). The adult human testis transcriptional cell atlas. Cell Research 28, 1141. 10.1038/s41422-018-0099-2; the disclosure of all of which is incorporated herein in its entirety), which provides a comprehensive characterization of cell types in the human adult testis. Pseudo-bulk RNA-seq analysis was used, which involves aggregating individual cells into groups to enhance the receptor gene expression signal on SSCs and differentiating spermatogonia. Each individual cell is assigned to its corresponding cell type cluster based and summing the expression values of all cells within each cluster to create pseudo-bulk samples.
The CellTalkDB database was used to identify receptors expressed in SSCs/differentiating spermatogonia. Specifically, the receptors whose expression in SSCs/differentiating spermatogonia ranks within the top 150 were selected, as expression levels below this point are generally low in these cell populations. […] This filtering step helps to focus on receptors that are more specific to the target cell populations. Using the CellTalkDB database, the corresponding ligands for the selected receptors were then identified. The ligand candidates were prioritized based on their expression levels in the testes, and their known functionality.
The identified ligands were then used in the iterative process of the instant disclosure for identifying culture conditions that support testicular germ cell proliferation in vitro to refine the culture conditions.

Molecule	EdU+/area (um2) to condition 2 [2]	Effective [3]	further results
CS[C@H]1SC[C@H]2C(=O)N(C)[C@@H](C(C)C)C(=O)OC[C@@H](NC(=O)c3cnc4ccccc4n3)C(=O)N[C@@H](C)C(=O)N(C)[C@@H]1C(=O)N(C)[C@@H](C(C)C)C(=O)OC[C@@H](NC(=O)c1cnc3ccccc3n1)C(=O)N[C@@H](C)C(=O)N2C [echinomycin, Echinomycin]			germ cell survival ([1]; even two weeks after start of culture): helps germ cell survival; maintenance of testicular tissue structure ([1]; inhibitor added to base culture media): helps maintain testicular tissue structure
C[C@]12CC[C@H]3[C@@H](CC[C@]4(O)C[C@@H](O)CC[C@]34C=O)[C@@]1(O)CC[C@@H]2C1=CC(=O)OC1 [Strophanthidin]	2.2		
CC(C)=CCC[C@](C)(O[C@@H]1O[C@H](CO)[C@@H](O)[C@H](O)[C@H]1O)[C@H]1CC[C@]2(C)[C@@H]1[C@H](O)C[C@@H]1[C@@]3(C)CC[C@H](O)C(C)(C)[C@@H]3[C@@H](O[C@@H]3O[C@H](CO)[C@@H](O)[C@H](O)[C@H]3O[C@@H]3OC[C@@H](O)[C@H](O)[C@H]3O)C[C@]12C [Notoginsenoside R1]	1.5		
c1cc(CN2CCCNCCNCCCNCC2)ccc1CN1CCCNCCNCCCNCC1 [Plerixafor]	1.4		
C[C@@H]1[C@H](O)[C@@H](C)/C=C/C=C/CC/C=C/C=C/C=C/C=C/C(O[C@H]2O[C@H](C)[C@@H](O)[C@H](N)[C@@H]2O)CC2O[C@](O)(CC(O)C(O)CCC(O)CC(O)CC(O)CC(=O)O[C@H]1C)CC(O)C2C(=O)O (some centres unmarked) [Nystatin]	2.1		improving germ cell proliferation ([2]; added to first culture condition, FIG. 31 / Table 12): effective at improving germ cell proliferation
O=C(Nc1ccc([N+](=O)[O-])cc1O)Nc1ccccc1Br [SB225002]	1.7		
B1		Yes	
B2		No	
B3		Yes	
